The values that follow come from patent publication US20210330596A1, “PHARMACEUTICAL COMPOSITION FOR USE IN A COMBINATION WITH CA[…] ENHANCE BENEFITS OF CA[…] SUPPORT HUMAN ENDOCANNABINOID SYSTEM” (priority 2020, published 2021).

The subject of this assay is mice's endocannabinoid system. As to the kind of experiment: maze and food trial: time the mice need to solve the maze after feed. The conditions noted are these: for time to solve the maze, Time 0, individual mouse / time to solve the maze, Time 0, Average: 10 minutes after feed; for time to solve the maze, Time 0, individual mouse / time to solve the maze, Time 1, individual mouse: mouse # 1-10 in table order; for time to solve the maze, Time 0, Average / time to solve the maze, Time 1, Average: ten mice; for time to solve the maze, Time 1, individual mouse / time to solve the maze, Time 1, Average: 120 minutes after feed. Type of assay: in vivo. As to the method: In an embodiment, the pharmaceutical composition of the present invention relates to an essential oil rich composition that supports the endocannabinoid system. Following tables 1-5 describe trials conducted with ten mice (Wistar) utilizing a maze and food to determine how long on average the mice solves the maze at 10 and 120 minutes after starting the experiment.
Table 1 is the base when the mice learned the experiment. It took 7 days of training (4 repetitions per day) to get the base time for each mice.
The Average Time results were statistically slower to the Control (Table 3) results with a standard deviation of less than 3%. The slowness with which the mice solved the maze leads us to believe either the embodiment has some entourage effect (as described by Ben-Shabat et. Al. in the European Journal of Pharmacology, 1998) or has supported the endocannabinoid system in mice because the mice took at least as long to solve the maze as before they developed tolerance to THC. The Entourage Effect was also described by Russo et. al. in his paper “Taming THC: potential cannabis synergy and phytocannabinoid-terpenoid entourage effects”, published in the British Journal of Pharmacology, 2011 August; 163(7): 1344-1364.
In this Table we see the results of THC 24 hours after the embodiment was administered. Mice on average take 1-5 hours to digest food. It is estimated that mice will have completely metabolized the embodiment after 24 hours. After THC was administered but now without the embodiment, mice are experiencing the same heightened effects of THC as in FIG. 4, even after the embodiment was not present in their body after a 24 hour period.

Setting [1] is: Day 1 CONTROL, 0.3 mgTHC/kg, before tolerance.
[2] abbreviates: Day 14 BASELINE 2 (acquired tolerance), 0.3 mgTHC/kg/day.
The mark [3] stands for this setting: TRIAL 2, 0.3 mgTHC + 0.0 mg embodiment/kg, THC 24 hours after the embodiment was administered.

Each structure is given as a SMILES string. Where “and” joins values, the source holds several entries; their conditions need not be identical. Equal values may be shown once.

On to `CCCCCc1cc(O)c2c(c1)OC(C)(C)[C@@H]1CCC(C)=C[C@@H]21` [THC, Tetrahydrocannabinol], for which, under setting [1], the “time to solve the maze, Time 0, individual mouse” value (shortened to “time … Time 0, individual mouse”) is 16 ± 3 minutes and 17 ± 3 minutes (2×) and 23 ± 3 minutes and 20 ± 3 minutes and 25 ± 3 minutes and 30 ± 3 minutes and 26 ± 3 minutes and 19 ± 3 minutes and 24 ± 3 minutes; the “time to solve the maze, Time 0, Average” value worked out at 22 ± 3 min; the “time to solve the maze, Time 1, individual mouse” value (shortened to “time … Time 1, individual mouse”) is 14 ± 3 minutes (2×) and 10 ± 3 minutes (2×) and 19 ± 3 minutes (2×) and 22 ± 3 minutes (2×) and 21 ± 3 minutes and 16 ± 3 minutes; the “time to solve the maze, Time 1, Average” value is 17 ± 3 min. Also, under setting [2], the “time … Time 0, individual mouse” value was 16 ± 3 minutes (2×) and 19 ± 3 minutes (2×) and 18 ± 3 minutes (2×) and 14 ± 3 minutes and 13 ± 3 minutes and 12 ± 3 minutes and 11 ± 3 minutes; the “time to solve the maze, Time 0, Average” value was found to be 14 ± 3 min; the “time … Time 1, individual mouse” value was 14 ± 3 minutes and 15 ± 3 minutes (2×) and 12 ± 3 minutes and 10 ± 3 minutes (4×) and 11 ± 3 minutes (2×); the “time to solve the maze, Time 1, Average” value was 12 ± 3 min. Further, under setting [3], the “time … Time 0, individual mouse” value was 27 ± 3 minutes (2×) and 20 ± 3 minutes and 22 ± 3 minutes (2×) and 17 ± 3 minutes and 16 ± 3 minutes and 21 ± 3 minutes and 18 ± 3 minutes and 29 ± 3 minutes; the “time to solve the maze, Time 0, Average” value was 22 ± 3 min; the “time … Time 1, individual mouse” value is 22 ± 3 minutes and 19 ± 3 minutes (2×) and 16 ± 3 minutes and 23 ± 3 minutes and 15 ± 3 minutes and 12 ± 3 minutes and 9 ± 3 minutes and 17 ± 3 minutes and 20 ± 3 minutes; the “time to solve the maze, Time 1, Average” value came out at 17 ± 3 min. Under “after 15 days of daily THC dose of 0.3 mgTHC/kg, Time 0 (10 minutes after feed), tolerance to THC”, the “maze solved faster on average than the Control Time, T0” value is on record as 40%. In addition, the “maze solved faster on average than the Control Time, T1” value (after 15 days of daily THC dose of 0.3 mgTHC/kg, Time 1 (120 minutes after feed), tolerance to THC) is “up to 60%”.
